Laboratory results as given in patent US8012963B2, “3,4-dihydro-2H-benzo[1,4]oxazine and thiazine derivatives as CETP inhibitors” (Janssen Pharmaceutica N.V., priority 2006, dated 2011).

Columns and labels:
[1] = system: rabbits; conditions: 30 mg/kg; cited from earlier work
[2] = clinical studies; cited from earlier work
[3] = system: rabbits; conditions: rabbits with severe hypercholesterolemia; cited from earlier work
[4] = molecular target: T1, CETP (Homo sapiens, UniProt P11597); assay: CETP in vitro assay ([3H]CE-HDL transfer, Amersham kit TRKQ7005; modified protocol in human plasma); format: biochemical; conditions: multiple values = multiple measurements
T1 construct: from tissue; host or cells: human plasma from normal volunteers
T1 sequence (P11597 18-493): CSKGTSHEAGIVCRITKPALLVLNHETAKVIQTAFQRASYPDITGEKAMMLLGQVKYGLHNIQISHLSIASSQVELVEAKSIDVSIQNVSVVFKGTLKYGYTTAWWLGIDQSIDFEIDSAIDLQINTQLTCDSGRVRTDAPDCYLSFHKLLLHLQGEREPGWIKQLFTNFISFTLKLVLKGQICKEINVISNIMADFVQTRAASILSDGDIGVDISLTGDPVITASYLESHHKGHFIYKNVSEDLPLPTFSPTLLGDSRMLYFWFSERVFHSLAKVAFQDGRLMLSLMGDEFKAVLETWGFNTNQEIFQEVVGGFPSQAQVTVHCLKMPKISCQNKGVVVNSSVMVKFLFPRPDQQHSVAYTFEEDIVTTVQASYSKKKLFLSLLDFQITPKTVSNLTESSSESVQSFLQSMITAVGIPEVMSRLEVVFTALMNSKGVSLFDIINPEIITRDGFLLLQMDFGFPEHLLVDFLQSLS
Summary of the method: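 Normal-volunteer human plasma was incubated ≥4 hr at 37 °C with approx. 25 μg/ml [3H]CE-HDL and compound in DMSO, with a 4 °C blank for non-specific transfer. HDL was separated by Dextralip/MgCl2 precipitation and centrifugation, then supernatant radioactivity counted. IC50 came from % control versus concentration.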

[5] = system: cholesterol-fed hamsters; assay: CETP in vivo assay: lipid parameters in cholesterol-fed hamsters; parameters: species or system hamster; conditions: plasma, mean ± SEM
Protocol: To determine the in vivo efficacy of a test compound, hamsters are first fed a moderately high cholesterol diet (Research Diets, D5012801) for two weeks before commencing treatment. The animals are orally gavaged with the vehicle (10% solutol, 5% ethanol, 85% D5W) and test compound for 5 days with the last dose being administered 2 hrs before sacrifice. Plasma is obtained and lipid parameters (HDL-C, LDL-C, Total Cholesterol, Triglycerides) are measured.

CCC(CC)CC1(C(=O)Nc2ccccc2SC(=O)C(C)C)CCCCC1 [JTT-705]
CETP activity [1]: inhibited CETP activity | change of HDL-C [1]: +90% | change of lesion size [1]: −70% | change of non-HDL-C cholesterol [1]: −50% | HDL-C [2]: raise HDL-C | LDL-C [2]: modestly lower LDL-C | triglyceride levels [2]: not alter triglyceride levels | plasma triglycerides [3]: significant elevations of plasma triglycerides | prevention of lesion development [3]: not efficacious in preventing lesion development

O[C@@H](CN1c2cccc(-c3cccc(OC(F)(F)F)c3)c2OC[C@@H]1c1cccc(OC(F)(F)C(F)F)c1)C(F)(F)F [Compound 3, 4H-1,4-Benzoxazine-4-ethanol, 2,3-dihydro-3-[3-(1,1,2,2-tetrafluoroethoxy)phenyl]-8-[3-(trifluoromethoxy)phenyl]-α-(trifluoromethyl)-, (3S,αS)—]
inhibition at 1 µM ([4]; 1 μM compound): 91% | IC50 [4]: 26 nM | HDL ([5]; 3 mg/kg oral gavage 5 days): 136 ± 6 mg/dL | HDL-C/LDL Ratio ([5]; 3 mg/kg oral gavage 5 days): 3.7 ± 0.2 | LDL ([5]; 3 mg/kg oral gavage 5 days): 36 ± 3 mg/dL | Total Cholesterol ([5]; 3 mg/kg oral gavage 5 days): 207 ± 7 mg/dL | Triglycerides ([5]; 3 mg/kg oral gavage 5 days): 278 ± 21 mg/dL | HDL ([5]; 10 mg/kg oral gavage 5 days): 158 ± 10 mg/dL | HDL-C/LDL Ratio ([5]; 10 mg/kg oral gavage 5 days): 5.2 ± 0.4 | LDL ([5]; 10 mg/kg oral gavage 5 days): 30 ± 2 mg/dL | Total Cholesterol ([5]; 10 mg/kg oral gavage 5 days): 217 ± 12 mg/dL | Triglycerides ([5]; 10 mg/kg oral gavage 5 days): 282 ± 16 mg/dL | HDL ([5]; 30 mg/kg oral gavage 5 days): 167 ± 5 mg/dL | HDL-C/LDL Ratio ([5]; 30 mg/kg oral gavage 5 days): 6.2 ± 0.3 | LDL ([5]; 30 mg/kg oral gavage 5 days): 27 ± 2 mg/dL | Total Cholesterol ([5]; 30 mg/kg oral gavage 5 days): 226 ± 5 mg/dL | Triglycerides ([5]; 30 mg/kg oral gavage 5 days): 300 ± 36 mg/dL
